{"source": "patent US9855253B2", "about": "“Pharmaceutical composition containing FK506 derivative for treating fungal infection caused by genus Cryptococcus and genus Candida and use thereof” (INTRON BIOTECHNOLOGY CO., LTD., priority 2014, dated 2018)", "key": {"Cryptococcus neoformans": {"tested_on": "Cryptococcus neoformans", "experiment": "standard agar diffusion method (paper disk), antifungal activity", "type": "cell-based", "conditions": "for zone of inhibition at 10 µg/mL: Cryptococcus neoformans treated with 10 μg/ml, 6 mm disk, PDA medium, incubated 2-3 days, read-out: diameters of the inhibition zones; for inhibition zones at higher concentrations (FIGS. 1 and 2): concentrations of 10 μg/ml and 40 μg/ml", "method": "The antifungal activities of FK506 derivatives against fungi such as Cryptococcus neoformans and Candida albicans, which are human pathogenic yeasts, were analyzed by the standard agar diffusion method (Murray et al., 1995 Manual of clinical microbiology (6th ed.), Washington, ASM Press, pp. 1275-1294), 100 μL of a standardized inoculam containing 10^7 CFU/ml, of a fungal suspension was uniformly plated in a Petri dish containing 20 mL of potato-dextrose agar (PDA) medium, and was dried for 5 minutes. A sterilized Whatman No. 1 filter paper disk baying a diameter of 6 mm was wet with each of 0.1 μg, 1 μg, 10 μg and 40 μg/ml of FK506 derivative dissolved in the same solvent as that used for extraction. As a control, an untreated disk and a disk wet with FK506 were used. Each plate was incubated at 30° C. and 37° C. for 2-3 days, and then the antifungal activity of each FK506 derivative was evaluated by comparing the diameters of inhibition zones against Cryptococcus neoformans and Candida albicans. The experiment for analysis of the antifungal activity was repeated at least three times. […] The diameters of the inhibition zones are shown in units of mm."}, "[1]": {"conditions": "background statement; result in words; cited from earlier work"}, "Candida albicans": {"tested_on": "Candida albicans", "experiment": "serum sensitivity of Candida albicans as a function of time (FIG. 3)", "type": "cell-based", "conditions": "result in words", "from_the_text": "FIG. 3 is a graph showing the inhibitory activity of a composition according to one embodiment of the present invention against Candida albicans as a function of time. FIG. 3 is a graph showing an increased or decreased change in the serum sensitivity of Candida albicans for 31-O-demethyl-FK506 that is FK506 derivative. Lower serum sensitivity with the passage of time indicates higher antifungal activity."}}, "data": [{"smiles": "C=CC[C@@H]1/C=C(\\C)C[C@H](C)C[C@H](OC)[C@H]2O[C@@](O)(CC(=O)N3CCCC[C@H]3C(=O)O[C@H](/C(C)=C/C3CC[C@@H](O)[C@H](OC)C3)[C@H](C)[C@H](O)CC1=O)[C@H](C)C[C@@H]2OC", "note": "(stereo partly shown) [Formula (II), 9-deoxo-FK506]", "values": [{"measurement": "zone of inhibition at 10 µg/mL", "setting": "Cryptococcus neoformans", "value": 21.6, "unit": "mm"}, {"measurement": "inhibitory activity against Cryptococcus neoformans (FIGS. 1 and 2)", "setting": "Cryptococcus neoformans; result in words", "value": "had inhibitory activity"}]}, {"smiles": "C=CC[C@@H]1/C=C(\\C)C[C@H](C)C[C@H](OC)[C@H]2O[C@@](O)(CC(=O)N3CCCC[C@H]3C(=O)O[C@H](/C(C)=C/C3CC[C@@H](O)[C@H](O)C3)[C@H](C)[C@H](O)CC1=O)[C@H](C)C[C@@H]2OC", "note": "(stereo partly shown) [Formula (III), 9-deoxo-31-O-demethyl-FK506]", "values": [{"measurement": "zone of inhibition at 10 µg/mL", "setting": "Cryptococcus neoformans", "value": 21.6, "unit": "mm"}, {"measurement": "inhibition zones at higher concentrations (FIGS. 1 and 2)", "setting": "Cryptococcus neoformans; result in words", "value": "large inhibition zones"}, {"measurement": "inhibitory activity against Cryptococcus neoformans (FIGS. 1 and 2)", "setting": "Cryptococcus neoformans; result in words", "value": "had inhibitory activity"}]}, {"smiles": "C=CC[C@@H]1/C=C(\\C)C[C@H](C)C[C@H](OC)[C@H]2O[C@@](O)(C(=O)C(=O)N3CCCC[C@H]3C(=O)O[C@H](/C(C)=C/[C@@H]3CC[C@@H](O)[C@H](OC)C3)[C@H](C)[C@@H](O)CC1=O)[C@H](C)C[C@@H]2OC", "note": "[FK506]", "values": [{"measurement": "toxicity or side effects relative to Cyclosporine A", "setting": "[1]", "value": "comparable to Cyclosporine A"}, {"measurement": "zone of inhibition at 10 µg/mL", "setting": "Cryptococcus neoformans", "value": 16.8, "unit": "mm"}]}, {"smiles": "C=CC[C@@H]1/C=C(\\C)C[C@H](C)C[C@H](OC)[C@H]2O[C@@](O)(C(=O)C(=O)N3CCCC[C@H]3C(=O)O[C@H](/C(C)=C/C3CC[C@@H](O)[C@H](O)C3)[C@H](C)C(O)CC1=O)[C@H](C)C[C@@H]2OC", "note": "(stereo in doubt) [Formula (I), 31-O-demethyl-FK506]", "values": [{"measurement": "inhibitory activity against Candida albicans compared with FK506, late time points (FIG. 3)", "setting": "Candida albicans; from 6 hours after treatment", "value": "maintained inhibitory activity higher than FK506"}, {"measurement": "inhibitory activity against Candida albicans compared with FK506 (FIG. 3)", "setting": "Candida albicans; serum sensitivity over time", "value": "almost equal to that of FK506"}, {"measurement": "zone of inhibition at 10 µg/mL", "setting": "Cryptococcus neoformans", "value": 26.4, "unit": "mm"}, {"measurement": "inhibitory activity against Cryptococcus neoformans compared with FK506", "setting": "Cryptococcus neoformans; comparison with FK506, result in words", "value": "inhibitory activity higher than FK506"}, {"measurement": "inhibition zones at higher concentrations (FIGS. 1 and 2)", "setting": "Cryptococcus neoformans; result in words", "value": "large inhibition zones"}, {"measurement": "inhibitory activity against Cryptococcus neoformans (FIGS. 1 and 2)", "setting": "Cryptococcus neoformans; result in words", "value": "had inhibitory activity"}]}]}
